Measurements as given in patent US20110152087A1, “Herbicidal compositions comprising flufenacet” (Bayer CropScience AG, priority 2009, published 2011).

Columns and labels:
Type in all cases: in vivo
[1] = tested on: ALOMY=Alopecurus myosuroides=weed; assay: Greenhouse trial, post-emergence action against weeds (test method 1); settings: PO application, about 3 weeks after application; g of AS/ha: flufenacet 120, diclofop 378, diflufenican 120, mixture 120+378+120
Description: (§1) In the standard design of the test, seeds of various broad-leaved weed and weed grass biotypes (origins) were sown in a 8-13 cm diameter pot filled with natural soil of a standard field soil (loamy silt; non-sterile) and covered with a covering soil layer of about 1 cm. The pots were then cultivated in a greenhouse (12-16 h of light, temperature day 20-22° C., night 15-18° C.) until the time of application. The pots were treated on a laboratory track sprayer with spray liquors comprising the compositions according to the invention, mixtures of the prior art or components used individually. Application of the active compounds or active compound combinations formulated as WG, WP, EC or otherwise was carried out at the appropriate growth stages of the plants. The application rate for the spray application was 100-600 l of water/ha. After the treatment, the plants were returned to the greenhouses.
(§2) About 3 weeks after the application, the soil action or/and foliar action was assessed visually according to a scale of 0-100% in comparison to an untreated comparative group: 0%=no noticeable effect compared to the untreated comparative group; 100%=full effect compared to the untreated comparative group.
(§3) (notes: the term “seeds” also includes vegetative propagation forms such as, for example, rhizome pieces; abbreviations used: h light=hours of illumination, g of AS/ha=gram of active substance per hectare, l/ha=liter per hectare, S=sensitive, R=resistant) • 1. Post-emergence action against weeds: seeds of various broad-leaved weed and weed grass biotypes (origins) were sown in a 8-13 cm diameter pot filled with natural soil of a standard field soil (loamy silt; non-sterile) and covered with a covering soil layer of about 1 cm. The pots were then cultivated in a greenhouse (12-16 h of light, temperature day 20-22° C., night 15-18° C.) until the time of application. The pots were treated at various BBCH stages between 11-25 of the seeds/plants, i.e. generally between two to three weeks after the start of the cultivation, on a laboratory track sprayer with spray liquors comprising the compositions according to the invention, mixtures or components used individually, as WG, WP, EC or other formulations. The application rate for the spray application was 100-600 l of water/ha. After the treatment, the plants were returned to the greenhouses and, when required, treated with fertilizer and watered. • 2. Selective post-emergence action: seeds of various crop species (origins) were sown in a 8-13 cm diameter pot filled with natural soil of a standard field soil (loamy silt; non-sterile) and covered with a covering soil layer of about 1 cm. The pots were then cultivated in a greenhouse (12-16 h of light, temperature day 20-22° C., night 15-18° C.) until the time of application. The pots were treated at various BBCH stages between 11-32 of the seeds/plants, i.e. generally between two to four weeks after the start of the cultivation, on a laboratory track sprayer with spray liquors comprising the compositions according to the invention, mixtures or components used individually, as WG, WP, EC or other formulations. The application rate for the spray application was 100-600 l of water/ha. After the treatment, the plants were returned to the greenhouses and, when required, treated with fertilizer and watered. The pots were cultivated in a greenhouse (12-16 h light, temperature day 20-22° C., night 15-18° C.).
(§4) E=(A+B+C)−(A×B+A×C+B×C)/100+(A×B×C)/10 000 • in which: • A, B, C=each the activity of the components A or B or C in percent at a dosage of a or b gram of AS/ha; • E^C=expected value according to Colby in % at a dosage of a+b gram of AS/ha. • Δ=difference (%) of measured value−%-to expected value−%-(measured value minus expected value) • Δ^D=difference (%) of the measured value of an observation A−%-to the measured value of an observation B−%. […]

[2] = tested on: APESV=Apera Spica-venti=weed; assay: as above; settings: PO application, about 3 weeks after application; g of AS/ha: flufenacet 120, diclofop 378, diflufenican 120, mixture 120+378+120
Description: as §1, §2, §3, §4

[3] = tested on: STEME=Stellaria media=weed; assay: as above; settings: PO application, about 3 weeks after application; g of AS/ha: flufenacet 120, diclofop 378, diflufenican 120, mixture 120+378+120
Description: as §1, §2, §3, §4

[4] = tested on: TRZAS=Triticum aestivum, summer wheat=crop plant; assay: Greenhouse trial, selective post-emergence action on crop plants (test method 2)
Description: as §1, §2, §3, §4

[5] = tested on: TRZAW=Triticum aestivum, winter wheat=crop plant; assay: as above
Description: as §1, §2, §3, §4

[6] = PO application, about 3 weeks after application, g of AS/ha: flufenacet 120, diclofop 378, diflufenican 120, mixture 120+378+120

| SMILES | activity ALOMY, visual assessment on scale 0-100% versus untreated [1] [%] | activity APESV, visual assessment on scale 0-100% versus untreated [2] [%] | activity STEME, visual assessment on scale 0-100% versus untreated [3] [%] | action on crop plant TRZAS, visual assessment on scale 0-100% versus untreated ([4]; in vivo, po) [%] | action on crop plant TRZAW, visual assessment on scale 0-100% versus untreated ([5]; in vivo, po) [%] | action on crop plant TRZAS, visual assessment on scale 0-100% versus untreated [4, 6] [%] | action on crop plant TRZAW, visual assessment on scale 0-100% versus untreated [5, 6] [%] |
| --- | --- | --- | --- | --- | --- | --- | --- |
| CC(C)N(C(=O)COc1nnc(C(F)(F)F)s1)c1ccc(F)cc1 [(A) flufenacet, N-(4-fluorophenyl)-N-(1-methylethyl)-2-[[5-(trifluoromethyl)-1,3,4-thiadiazol-2-yl]oxy]acetamide] | 65 | 60 | 30 | 40 | 50 |  |  |
| CC(Oc1ccc(Oc2ccc(Cl)cc2Cl)cc1)C(=O)O (racemic) [(B) diclofop, (±)-2-[4-(2,4-dichlorophenoxy)phenoxy]propanoic acid] | 15 | 0 | 0 |  |  | 10 | 20 |
| O=C(Nc1ccc(F)cc1F)c1cccnc1Oc1cccc(C(F)(F)F)c1 [(C) diflufenican, N-(2,4-difluorophenyl)-2-[3-(trifluoromethyl)phenoxy]-3-pyridinecarboxamide] | 10 | 5 | 30 |  |  | 5 | 5 |
